Where no end group is shown, it is not given here.
Columns and labels:
HLA-B7 = molecular target: T1, HLA-B7 (Homo sapiens, UniProt P01889); experiment: T2-B7 binding assay: stabilization of HLA-B7 molecules on the surface of T2-B7 cells, flow cytometry; settings: for binding affinity for HLA-B7 compared with natural RS10 peptide: FIGS. 4 and 6; for EC50: FIGS. 4 and 6, read-out: concentration required for a 50% increase in HLA-B7 expression
T1 construct: transfected with the HLA-B7 gene; expressed in transfected cells; host or cells: T2 (TAP1/TAP2-deficient hybrid B and T lymphoblastoid cell line) transfected with the HLA-B7 gene (T2.B7, gift of Peter Cresswell)
T1 sequence (P01889 25-362): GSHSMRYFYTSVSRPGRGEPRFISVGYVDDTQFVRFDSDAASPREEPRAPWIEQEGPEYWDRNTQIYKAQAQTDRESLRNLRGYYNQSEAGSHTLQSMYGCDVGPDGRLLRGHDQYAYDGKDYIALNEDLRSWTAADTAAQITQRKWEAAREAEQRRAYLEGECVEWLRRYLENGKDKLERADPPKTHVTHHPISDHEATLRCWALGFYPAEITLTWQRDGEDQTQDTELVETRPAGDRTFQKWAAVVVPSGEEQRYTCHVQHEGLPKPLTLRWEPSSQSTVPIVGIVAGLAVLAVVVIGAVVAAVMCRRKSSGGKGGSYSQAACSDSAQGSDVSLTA
T1 sequence (P61769 21-119 partner): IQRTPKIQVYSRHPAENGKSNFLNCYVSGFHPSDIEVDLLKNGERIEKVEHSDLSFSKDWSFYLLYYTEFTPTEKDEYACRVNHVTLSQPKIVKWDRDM
Method: A chromosomal translocation-generated fusion protein breakpoint peptide, RS10 (SPQNSIRHNL), is selected on the basis of predicted potential binding to HLA-B7 (Rammensee et al., Immunogenetics 41: 178-228 (1995)). Peptide binding to HLA-B7 is assessed by using stabilization of HLA-B7 molecules on the surface of T2-B7 cells that lack the TAP transporter and therefore express only short-lived empty HLA-B7 molecules unless a peptide is present that can bind and stabilize them. These assays are described in (Stuber et al., Eur. J. Immunol., 22, 2697-2703 (1992), Nijman et al., Eur. J. Immunol., 23, 1215-1219 (1993), Zeh et al., Hum. Immunol., 39, 79-86 (1994), and Smith et al., Internat. Immunol., 9, 1085-1093 (1997)). Cells of the TAP1/TAP2-deficient T2 cell line (Salter et al., Immunogenetics, 21, 235-246 (1985), and Spies et al., Nature, 351, 323-324 (1991)) transfected with the HLA-B7 gene are suspended in culture medium containing heat inactivated FCS (2.5% v/v) and added to 96-well round-bottomed plates at 2×10^5 cells/well. Human β2-microglobulin (Sigma Chemical Co.) is also added at 20 μg/well. Where appropriate, peptide is added to the desired concentration. The cells are then incubated overnight at 37° C. in 5% CO2, followed by washing with PBS containing NaN3 (0.5% w/v and FCS 2% v/v). Next, cells are incubated on ice for 30 min in the presence of primary anti-HLA-B7 specific antibody (BB7.1 hybridoma culture supernatant; ATCC), followed by washing and incubation for 30 min in goat anti-mouse immunoglobulin FITC (Becton Dickinson). Analysis is performed by flow cytometry.
Conventional mAb staining is conducted in PBS containing 0.01% sodium azide on ice. Cells are labeled with FITC- or PE-conjugated mAbs obtained from BD PharMingen (San Diego, Calif.). For each staining of interest, the appropriate isotype-matched control is included. All reagents are used at optimal concentration as determined experimentally. Flow cytometric analysis is performed with a FACScan (BD Biosciences, Mountain View, Calif.). Data are collected on 5000-10,000 viable cell events and analyzed with CellQuest software.

C1R-B7 target cells = experiment: 4 h 51Cr release assay, RS10-specific human CTL line against peptide pulsed C1R-B7 target cells; assay type: cell-based; settings: peptide pulsed at 10 μM, various E:T ratios, versus control peptide
Method: In particular, specific cytotoxic activities are determined in a standard 4 h ^51Cr release assay at various effector:target (E:T) ratios. Briefly, graded doses of viable effector cells are plated in triplicate in 96-well U-bottom culture plates (Corning Glass, Corning, N.Y.) and co-cultured for 4 h with sodium chromate-labeled (100 μCi; NEN, Boston, Mass.) peptide pulsed (10 μM) C1R-B7 target cells. In some experiments, the Rh5, RD and CTR tumor cell lines are used as a target. Supernatants are collected, radioactivity measured, and specific lysis is calculated according to the equation: percentage of specific cytotoxicity=(experimental cpm−spontaneous cpm)/(maximum cpm−spontaneous cpm)×100. Maximum ^51Cr release is determined from supernatants of lysed target cells incubated with Triton X-100 (5% v/v). Spontaneous release is determined from target cells incubated without added effector cells.

Sequence | binding affinity for HLA-B7 compared with natural RS10 peptide (HLA-B7) | EC50 (HLA-B7) | CTL lysis of peptide pulsed C1R-B7 target cells (C1R-B7 target cells)
SPQNSARHNL [RS10-6A] | higher binding affinity for HLA-B7 than the natural RS10 peptide |  | 
SPQNSIRHNL [RS10, SPQNSIRHNL] |  | ~300 nM | 
SPQNAIRHNL [RS10-5A] | higher binding affinity for HLA-B7 than the natural RS10 peptide |  | 
SPANSIRHNL [RS10-3A, SPANSIRHNL] | higher binding affinity for HLA-B7 than the natural RS10 peptide | ~50 nM | specific killing observed
